Common to all, as to format: biochemical
Assay [1] addresses T1, actSHP2 (Src-homology-2-domain-containing PTP 2) (Homo sapiens, UniProt Q06124, C333P/V428C/S430C/D431C).
T1 construct: gene PTPN11; His6-tagged catalytic domain
T1 sequence (Q06124 247-517 C333P/V428C/S430C/D431C limits assumed): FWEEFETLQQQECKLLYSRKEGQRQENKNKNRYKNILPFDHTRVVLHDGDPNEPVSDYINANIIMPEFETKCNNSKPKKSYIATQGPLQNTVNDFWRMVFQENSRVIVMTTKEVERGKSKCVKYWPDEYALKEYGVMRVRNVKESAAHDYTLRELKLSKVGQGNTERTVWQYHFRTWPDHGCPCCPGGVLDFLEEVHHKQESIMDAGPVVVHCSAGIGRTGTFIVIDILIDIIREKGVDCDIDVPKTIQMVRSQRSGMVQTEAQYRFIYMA
The assay can be described thus: pNPP phosphatase assay (activation at […]).

A further assay concerns the target T2, actPTPκ (PTPkappa) (Homo sapiens, UniProt Q15262, H1056C/V1053C/Y1055C).
T2 construct: gene PTPRK; His6-tagged catalytic domain, residues 870–1154
T2 sequence (Q15262 869-1153 V1053C/Y1055C/H1056C): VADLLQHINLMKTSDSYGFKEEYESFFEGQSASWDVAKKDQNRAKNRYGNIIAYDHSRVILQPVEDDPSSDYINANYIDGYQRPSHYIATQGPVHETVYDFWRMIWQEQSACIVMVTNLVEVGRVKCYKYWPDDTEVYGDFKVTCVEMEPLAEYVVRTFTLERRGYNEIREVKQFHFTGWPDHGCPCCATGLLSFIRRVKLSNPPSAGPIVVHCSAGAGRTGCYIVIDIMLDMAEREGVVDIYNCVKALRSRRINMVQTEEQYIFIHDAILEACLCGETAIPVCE
The assay can be described thus: pNPP phosphatase assay (activation, dose dependence); also in-gel fluorescence of labelled protein in lysate.

The target in assay [2] is T3, actHePTP (hematopoietic PTP) (Homo sapiens, UniProt P35236, E262C/S263C/T260C).
T3 construct: gene PTPN7; His6-tagged catalytic domain, residues 65–360
T3 sequence (P35236 65-360 T260C/E262C/S263C): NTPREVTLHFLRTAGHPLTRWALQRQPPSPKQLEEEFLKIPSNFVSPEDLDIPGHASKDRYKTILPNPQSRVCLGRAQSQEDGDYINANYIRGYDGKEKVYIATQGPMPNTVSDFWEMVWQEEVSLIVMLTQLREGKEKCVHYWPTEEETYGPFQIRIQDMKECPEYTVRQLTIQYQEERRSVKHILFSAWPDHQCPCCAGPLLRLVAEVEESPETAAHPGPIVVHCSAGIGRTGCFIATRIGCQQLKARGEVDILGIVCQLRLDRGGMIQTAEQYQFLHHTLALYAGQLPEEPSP
Described as above.

As a reminder, the AC50 is the midpoint of the concentration-response curve, whichever way the signal moves. Low values mean greater potency, high ones weaker potency. Take `CC1(C)C(/C=C/C=C/C=C2/N(CCCCS(=O)(=O)O)c3ccc([As]4SCCS4)cc3C2(C)C)=[N+](CCCCS(=O)(=O)[O-])c2ccc([As]3SCCS3)cc21` [AsCy5]: the “pNPP phosphatase assay (activation at 1 μM)” value in assay [1] was “Both cyanine-derived biarsenicals, AsCy3 and AsCy5, were more successful in activating actSHP2 than FlAsH and ReAsH”. Further, the AC50 on actPTPκ (PTPkappa) was roughly 600 nM; in assay [2], roughly 200 nM.

The values above are taken from publication PMC6834593, “Chemical activation of divergent protein tyrosine phosphatase domains with cyanine-based biarsenicals” (Scientific Reports, 2019).
